Measured values as given in US6265572A, “Pyrrolidincarbonylamino cyclic disulfide anti-inflammatory agents” (Hoffmann-La Roche Inc., priority 2000, dated 2001).

Tests used:
[1] = target: T1, VLA-4/VCAM-1 (Homo sapiens, UniProt P05556+P13612); test: VLA-4/VCAM-1 Screening Assay (solid-phase, dual antibody ELISA); type: binding; settings: Ramos cell-derived VLA-4, immobilized recombinant human VCAM-1
T1 construct: Ramos cell-derived VLA-4; endogenous in cells; host or cells: Ramos cells (VLA-4)
Excerpt: A means for determining the potency of these anti-inflammatory agents is by evaluating their ability to inhibit binding of the integrin VLA-4 to the cell adhesion molecule VCAM-1. For example, the potency of the compounds herein can be determined with respect to the concentration of the compound at 50% inhibition of VCAM/VLA4 binding (IC50) as measured by VLA-4/VCAM-1 binding assay.
In accordance with the present invention, any conventional method known in the art can be used to determine inhibition of VCAM-1/VLA-4 binding. For example, a solid-phase dual antibody ELISA or Ramos cell-based screening assay can be utilized to determine inhibition of VCAM-1/VLA-4 binding.
VLA-4/VCAM-1 Screening Assay
VLA-4 antagonist activity, defined as ability to compete for binding to immobilized VCAM-1, was quantitated using a solid-phase, dual antibody ELISA. VLA-4 (α4β1 integrin) bound to VCAM-1 is detected by a complex of anti-integrin β1 antibody: HRP-conjugated anti-mouse IgG: chromogenic substrate (K-Blue). Initially, this entailed coating 96 well plates (Nunc Maxisorp) with recombinant human VCAM-1 (0.4 μg in 100 μl PBS), sealing each plate and then allowing the plates to stand at 4° C. for 18 hours. […] On the day of assay, all plates are washed twice with VCAM Assay Buffer (200 μl/well of 50 mM Tris-HCl, 100 mM NaCl, 1 mM MnCl2, 0.05% T ween 20; pH 7.4). Test compounds are dissolved in 100% DMSO and then diluted 1:20 in VCAM Assay Buffer supplemented with 1 mg/mL BSA (i.e., final DMSO=5%). A series of 1:4 dilutions are performed to achieve a concentration range of 0.005 nM-1.563 μM for each test compound. 100 μl per well of each dilution is added to the VCAM-coated plates, followed by 10 μl of Ramos cell-derived VLA-4. These plates are sequentially mixed on a platform shaker for 1 min, incubated for 2 hour at 37° C., and then washed four times with 200 μl/well VCAM Assay Buffer. 100 μl of mouse anti-human integrin b1 antibody is added to each well (0.6 μg/mL in VCAM Assay Buffer+1 mg/mL BSA) and allowed to incubate for 1 hour at 37° C. At the conclusion of this incubation period, all plates are washed four times with VCAM Assay Buffer (200 μl/well). A corresponding second antibody, HRP-conjugated goat anti-mouse IgG (100 μl per well @ 1:800 dilution in VCAM Assay Buffer+1 mg/mL BSA), is then added to each well, followed by a 1 hour incubation at room temperature and concluded by three washes (200 μl/well) with VCAM Assay Buffer. Color development is initiated by addition of 100 μl K-Blue per well (15 mim incubation, room temp) and terminated by addition of 100 μl Red Stop Buffer per well. All plates are then read in a UV/Vis spectrophotometer at […]. Results are calculated as % inhibition of total binding (i.e., VLA-4+VCAM-1 in the absence of test compound).

[2] = target: T2, Ramos (VLA-4)/VCAM-1 (Homo sapiens, UniProt P05556+P13612); test: Ramos (VLA-4)/VCAM-1 Cell-Based Screening Assay (Ramos-VCAM-1 cell adhesion); settings: Calcein-AM labeled Ramos cells, immobilized recombinant human VCAM-1
T2 construct: Ramos cells bearing cell-surface VLA-4; endogenous in cells; host or cells: Ramos cells (VLA-4); soluble VCAM-1 purified from CHO cell culture media
Procedure: Ramos (VLA-4)/VCAM-1 Cell-Based Screening Assay Protocol
Soluble recombinant human VCAM-1 (mixture of 5- and 7-Ig domain) was purified from CHO cell culture media by immunoaffinity chromatography and maintained in a solution containing 0.1 M Tris-glycine (pH 7.5), 0.1 M NaCl, 5 mM EDTA, 1 mM PMSF, […] NaN3 and 10 μg/mL leupeptin. Calcein-AM was purchased from Molecular Probes Inc.
VLA-4 (a4b1 integrin) antagonist activity, defined as the ability to compete with cell-surface VLA-4 for binding to immobilized VCAM-1, was quantitated using a Ramos-VCAM-1 cell adhesion assay. Ramos cells bearing cell-surface VLA-4, were labeled with a fluorescent dye (Calcein-AM) and allowed to bind VCAM-1 in the presence or absence of test compounds. A reduction in fluorescence intensity associated with adherent cells (% inhibition) reflected competitive inhibition of VLA-4 mediated cell adhesion by the test compound.
Initially, this entailed coating 96 well plates (Nunc Maxisorp) with recombinant human VCAM-1 (100 ng in 100 μl PBS), sealing each plate and allowing the plates to stand at 4° C. for ^~ 18 hour. The VCAM-coated plates were subsequently washed twice with 0.05% Tween-20 in PBS, and then blocked for 1 hour (room temperature) with 200 μl of Blocking Buffer (1% BSA/0.02% thimerosal) to reduce non-specific binding. Following the incubation with Blocking Buffer, plates were inverted, blotted and the remaining buffer aspirated. Each plate was then washed with 300 μl PBS, inverted and the remaining PBS aspirated.
Test compounds were dissolved in 100% DMSO and then diluted 1:25 in VCAM Cell Adhesion Assay Buffer (4 mM CaCl2, 4 mM MgCl2 in 50 mM TRIS-HCl, pH 7.5) (final DMSO=4%). A series of eight 1:4 dilutions were performed for each compound (general concentration range of 1 nM-12,500 nM). 100 μl/well of each dilution was added to the VCAM-coated plates, followed by 100 μl of Ramos cells (200,000 cells/well in 1% BSA/PBS). Plates containing test compounds and Ramos cells were allowed to incubate for 45 min at room temperature, after which 165 μl/well PBS was added. Plates were inverted to remove non-adherent cells, blotted and 300 μl/well PBS added. Plates were again inverted, blotted and the remaining buffer gently aspirated. 100 μl Lysis Buffer (0.1% SDS in 50 mM TRIS-HCl, pH 8.5) was added to each well and agitated for 2 min on a rotary shaking platform. The plates were then read for fluorescence intensity on a Cytofluor 2300 (Millipore) fluorecence measurement system (excitation=485 nm, emission=530 nm).

T1 sequence (P13612 34-1032): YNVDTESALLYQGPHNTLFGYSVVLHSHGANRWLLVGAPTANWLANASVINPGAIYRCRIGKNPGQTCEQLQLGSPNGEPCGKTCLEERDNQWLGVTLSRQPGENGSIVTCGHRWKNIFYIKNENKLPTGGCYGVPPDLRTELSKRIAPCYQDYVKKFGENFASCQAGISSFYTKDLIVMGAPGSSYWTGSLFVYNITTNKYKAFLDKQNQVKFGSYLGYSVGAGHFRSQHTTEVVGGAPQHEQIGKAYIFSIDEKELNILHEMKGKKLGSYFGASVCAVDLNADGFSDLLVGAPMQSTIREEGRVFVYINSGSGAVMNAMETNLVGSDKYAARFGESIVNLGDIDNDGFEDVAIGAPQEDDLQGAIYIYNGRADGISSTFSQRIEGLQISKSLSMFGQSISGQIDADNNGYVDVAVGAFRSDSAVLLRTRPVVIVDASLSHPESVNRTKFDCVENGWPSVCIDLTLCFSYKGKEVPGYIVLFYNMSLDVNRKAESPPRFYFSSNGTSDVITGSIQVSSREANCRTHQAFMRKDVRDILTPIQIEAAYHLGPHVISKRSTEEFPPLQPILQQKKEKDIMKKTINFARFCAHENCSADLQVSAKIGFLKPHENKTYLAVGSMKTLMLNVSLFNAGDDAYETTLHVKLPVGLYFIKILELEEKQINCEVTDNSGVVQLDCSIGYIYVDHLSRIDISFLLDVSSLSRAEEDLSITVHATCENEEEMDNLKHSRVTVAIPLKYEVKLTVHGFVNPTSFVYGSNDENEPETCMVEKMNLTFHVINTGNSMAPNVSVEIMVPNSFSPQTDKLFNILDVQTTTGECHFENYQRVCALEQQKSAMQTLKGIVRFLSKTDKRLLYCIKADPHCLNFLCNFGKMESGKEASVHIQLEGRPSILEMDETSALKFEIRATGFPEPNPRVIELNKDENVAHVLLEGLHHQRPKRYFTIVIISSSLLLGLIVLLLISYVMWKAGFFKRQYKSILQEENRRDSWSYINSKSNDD
T1 sequence (P05556 21-798): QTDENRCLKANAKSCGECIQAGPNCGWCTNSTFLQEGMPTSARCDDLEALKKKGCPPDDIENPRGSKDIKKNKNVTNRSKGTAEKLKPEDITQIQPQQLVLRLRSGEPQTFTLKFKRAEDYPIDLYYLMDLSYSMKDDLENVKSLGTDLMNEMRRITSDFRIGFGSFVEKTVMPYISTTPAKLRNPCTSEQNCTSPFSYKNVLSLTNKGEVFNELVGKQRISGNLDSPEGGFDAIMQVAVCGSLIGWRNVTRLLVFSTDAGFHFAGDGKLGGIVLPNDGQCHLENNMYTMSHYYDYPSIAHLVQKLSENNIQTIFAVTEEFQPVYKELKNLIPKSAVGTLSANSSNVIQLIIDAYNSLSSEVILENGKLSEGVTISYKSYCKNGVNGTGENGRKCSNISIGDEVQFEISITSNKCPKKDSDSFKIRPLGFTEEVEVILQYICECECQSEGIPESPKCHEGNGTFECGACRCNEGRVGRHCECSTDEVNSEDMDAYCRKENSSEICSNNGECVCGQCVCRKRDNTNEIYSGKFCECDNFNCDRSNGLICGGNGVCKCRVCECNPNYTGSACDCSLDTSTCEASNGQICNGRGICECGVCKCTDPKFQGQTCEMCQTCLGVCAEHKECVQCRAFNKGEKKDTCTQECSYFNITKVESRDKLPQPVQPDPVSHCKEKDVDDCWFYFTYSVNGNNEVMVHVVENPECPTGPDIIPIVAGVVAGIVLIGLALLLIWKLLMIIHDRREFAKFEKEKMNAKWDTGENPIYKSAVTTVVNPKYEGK
T2 sequence (P13612 34-1032): as the sequence (P13612 34-1032) above
T2 sequence (P05556 21-798): as the sequence (P05556 21-798) above

| Compound | IC50 [1] | IC50 [2] |
| --- | --- | --- |
| CS(=O)(=O)N1CC[C@H](c2ccc(O)cc2)[C@H]1C(=O)N[C@H]1CSSC[C@@H](C(=O)O)NC(=O)C2(CCCC2)CCNC1=O [Example 22, (8R,13R)-13-[[[1-methylsulfonyl-3-(R)-(4-hydroxyphenyl)-2-(S)pyrrolidinyl]carbonyl]amino]-6,14-dioxo-10,11-dithia-7,15-diazaspiro[4. 12]-heptadecane-8-carboxylic Acid] | 0.17 nM |  |
| CC(=O)N1CC[C@H](c2ccc(O)cc2)[C@H]1C(=O)N[C@H]1CSSC[C@@H](C(=O)O)NC(=O)C2(CCCC2)CCNC1=O [Example 12, (8R,13R)-13-[[[1-acetyl-3-(R)-(4-hydroxyphenyl)-2-(S)-pyrrolidinyl]carbonyl]amino]-6,14-dioxo-10,11-dithia-7,15-diazaspiro[4. 12]heptadecane-8-carboxylic Acid] | 0.185 nM | 0.21 nM |
| CC(=O)N1CC[C@@H](c2ccc(O)cc2)[C@@H]1C(=O)N[C@H]1CSSC[C@@H](C(=O)O)NC(=O)C2(CCCC2)CCNC1=O [reference compound] | 1.65 nM | 24 nM |
| CC(=O)N1CC[C@H](c2ccc(O)cc2)[C@H]1C(=O)N[C@H]1CSSC[C@@H](C(=O)O)NC(=O)C2(CCCCC2)CCNC1=O [Example 19, (9R,14R)-14-[[[1-acetyl-3-(R)-(4-hydroxyphenyl)-2-(S)-pyrrolidinyl]-arbonyl]amino]-7,15-dioxo-11,12-dithia-8,16-diazaspiro[5. 12]Octadecane-9-carboxylic Acid] | 0.12 nM | 0.28 nM |
| CC(C)(C)C(=O)N1CC[C@H](c2ccc(O)cc2)[C@H]1C(=O)N[C@H]1CSSC[C@@H](C(=O)O)NC(=O)C2(CCCC2)CCNC1=O [Example 24, (8R,13R)-13-[[[1-(2,2-dimethyl-1-oxopropyl)-3(R)-(4-hydroxyphenyl)-2(S)-pyrrolidinyl]carbonyl]amino]-6,14-dioxo-10,11-dithia-7,15-diazaspiro[4. 12]heptadecane-8-carboxylic Acid] | 0.14 nM | 0.18 nM |
| O=C(O)[C@@H]1CSSC[C@H](NC(=O)[C@H]2NCC[C@@H]2c2ccc(O)cc2)C(=O)NCCC2(CCCC2)C(=O)N1 [Example 26, (8R,13R)-13-[[[3(R)-(4-hydroxyphenyl)-2(S)-pyrrolidinyl]carbonyl]-amino]-6,14-dioxo-10,11-dithia-7,15-diazaspiro[4.12]heptadecane-8-carboxylic Acid] | 0.19 nM |  |
